According to US20060069132A1, “Azolecarboxamide herbicides” (priority 2004, published 2006):

Columns and labels:
Surinam grass = assay: Test B pre-/postemergence herbicide test; type: in vivo, Urochloa decumbens; details: for Plant response rating, Surinam Grass: preemergence; for Surinam Grass plant response rating: postemergence, visual rating, scale 0 (no effect) to 100 (complete control)
In short: (§1)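 Flooded paddy rice and barnyardgrass were treated at the 2-leaf stage; upland plantings received compound either on sown seed or on 1- to 4-leaf seedlings. All were kept 13–15 days in a greenhouse and scored visually, 0–100, relative to untreated plants.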

[1] = tested on: small flower umbrella sedge; assay: Test B flooded paddy test; type: in vivo, Cyperus difformis; details: 1000 g ai/ha, visual rating, scale 0 to 100 (0 no effect, 100 complete control), 13 to 15 days
In short: (§2)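 Read-out: visual comparison with controls, scored 0 to 100, where 100 means complete control and 0 no effect. Formulated chemicals were applied postemergence to plants 2–18 cm tall (1- to 4-leaf), or to flooded-paddy plants at the 2-leaf stage, then held 13 to 15 days under glass.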

wheat = assay: Test B postemergence herbicide test; type: in vivo, Triticum aestivum; set-up: key to Wheat plant response rating: 0 = no effect, 100 = complete control; details: postemergence, visual rating, scale 0 (no effect) to 100 (complete control)
In short: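 Greenhouse test; postemergence application to plants at 1–4 leaves (2–18 cm); paddy species at 2 leaves; evaluated visually vs controls at 13–15 days; scale 0–100 (100 = complete control).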

morningglory = assay: Test B pre-/postemergence herbicide test; type: in vivo, Ipomoea coccinea; details: for Plant response rating, Morningglory: preemergence; for Morningglory plant response rating: postemergence, visual rating, scale 0 (no effect) to 100 (complete control)
In short: (§3)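 Pre: seeds sown, then sprayed. Post: 1–4-leaf plants (2–18 cm) sprayed at the same time. Paddy: flooded, treated at 2-leaf stage. Formulation: non-phytotoxic solvent with surfactant. Greenhouse 13–15 days; visual 0–100 score relative to controls.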

pigweed = assay: Test B pre-/postemergence herbicide test; type: in vivo, Amaranthus retroflexus; details: for Plant response rating, Pigweed: preemergence; for Pigweed plant response rating: postemergence, visual rating, scale 0 (no effect) to 100 (complete control)
In short: as §1

barnyardgrass [2] = assay: Test B flooded paddy test; type: in vivo, Echinochloa crus-galli; details: 1000 g ai/ha, visual rating, scale 0 to 100 (0 no effect, 100 complete control), 13 to 15 days
In short: as §2

ducksalad = assay: Test B flooded paddy test; type: in vivo, Heteranthera limosa; details: 1000 g ai/ha, visual rating, scale 0 to 100 (0 no effect, 100 complete control), 13 to 15 days
In short: as §2

giant foxtail = assay: Test B pre-/postemergence herbicide test; type: in vivo, Setaria faberi; details: for Plant response rating, Foxtail, Giant: preemergence; for Foxtail, Giant plant response rating: postemergence, visual rating, scale 0 (no effect) to 100 (complete control)
In short: as §1

large crabgrass = assay: Test B pre-/postemergence herbicide test; type: in vivo, Digitaria sanguinalis; details: for Plant response rating, Crabgrass, Large: preemergence; for Crabgrass, Large plant response rating: postemergence, visual rating, scale 0 (no effect) to 100 (complete control)
In short: as §1

cocklebur = assay: Test B pre-/postemergence herbicide test; type: in vivo, Xanthium strumarium; details: for Plant response rating, Cocklebur: preemergence; for Cocklebur plant response rating: postemergence, visual rating, scale 0 (no effect) to 100 (complete control)
In short: as §3

velvetleaf = assay: Test B pre-/postemergence herbicide test; type: in vivo, Abutilon theophrasti; details: for Plant response rating, Velvetleaf: preemergence; for Velvetleaf plant response rating: postemergence, visual rating, scale 0 (no effect) to 100 (complete control)
In short: as §1

barnyardgrass [3] = assay: Test B pre-/postemergence herbicide test; type: in vivo, Echinochloa crus-galli; details: for Plant response rating, Barnyardgrass: preemergence; for Barnyardgrass plant response rating: postemergence, visual rating, scale 0 (no effect) to 100 (complete control)
In short: as §3

blackgrass = assay: Test B postemergence herbicide test; type: in vivo, Alopecurus myosuroides; details: postemergence, visual rating, scale 0 (no effect) to 100 (complete control)
In short: as §2

rice = assay: Test B flooded paddy test; type: in vivo, Oryza sativa; details: 1000 g ai/ha, visual rating, scale 0 to 100 (0 no effect, 100 complete control), 13 to 15 days
In short: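 After treating 2-leaf paddy plants or 2–18 cm postemergence plants (1 to 4 leaves) with formulated chemical, researchers kept them in a greenhouse for 13–15 days. Effects were judged visually versus controls: 0 indicates none, 100 total control.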

lambsquarters = assay: Test B pre-/postemergence herbicide test; type: in vivo, Chenopodium album; details: for Plant response rating, Lambsquarters: preemergence; for Lambsquarters plant response rating: postemergence, visual rating, scale 0 (no effect) to 100 (complete control)
In short: as §1

[4] = 500 g ai/ha, visual rating 0-100, 0 no effect, 100 complete control
[5] = 125 g ai/ha, 0 to 100 scale, 0 is no effect, 100 is complete control

CCn1nc(C(C)(C)C)cc1C(=O)Nc1cccc(S(=O)(=O)C(F)(F)F)c1 [Compound 134]
Plant response rating, Surinam Grass (Surinam grass; [4]): 50
Surinam Grass plant response rating (Surinam grass; 125 g ai/ha): 20
Surinam Grass plant response rating (Surinam grass; 500 g ai/ha): 40
Plant response rating, Surinam Grass (Surinam grass; [5]): 30
Sedge, Umbrella plant response rating [1]: 80
Wheat plant response rating (wheat; 125 g ai/ha): 10
Wheat plant response rating (wheat; 500 g ai/ha): 20
Plant response rating, Morningglory (morningglory; [4]): 20
Morningglory plant response rating (morningglory; 125 g ai/ha): 20
Morningglory plant response rating (morningglory; 500 g ai/ha): 40
Plant response rating, Morningglory (morningglory; [5]): 10
Plant response rating, Pigweed (pigweed; [4]): 100
Pigweed plant response rating (pigweed; 125 g ai/ha): 80
Pigweed plant response rating (pigweed; 500 g ai/ha): 90
Plant response rating, Pigweed (pigweed; [5]): 100
Barnyardgrass plant response rating (barnyardgrass [2]): 60
Ducksalad plant response rating (ducksalad): 90
Plant response rating, Foxtail, Giant (giant foxtail; [4]): 70
Foxtail, Giant plant response rating (giant foxtail; 125 g ai/ha): 30
Foxtail, Giant plant response rating (giant foxtail; 500 g ai/ha): 40
Plant response rating, Foxtail, Giant (giant foxtail; [5]): 20
Plant response rating, Crabgrass, Large (large crabgrass; [4]): 100
Crabgrass, Large plant response rating (large crabgrass; 125 g ai/ha): 30
Crabgrass, Large plant response rating (large crabgrass; 500 g ai/ha): 30
Plant response rating, Crabgrass, Large (large crabgrass; [5]): 80
Plant response rating, Cocklebur (cocklebur; [4]): 0
Cocklebur plant response rating (cocklebur; 125 g ai/ha): 80
Cocklebur plant response rating (cocklebur; 500 g ai/ha): 100
Plant response rating, Cocklebur (cocklebur; [5]): 0
Plant response rating, Velvetleaf (velvetleaf; [4]): 90
Velvetleaf plant response rating (velvetleaf; 125 g ai/ha): 30
Velvetleaf plant response rating (velvetleaf; 500 g ai/ha): 40
Plant response rating, Velvetleaf (velvetleaf; [5]): 30
Plant response rating, Barnyardgrass (barnyardgrass [3]; [4]): 80
Barnyardgrass plant response rating (barnyardgrass [3]; 125 g ai/ha): 20
Barnyardgrass plant response rating (barnyardgrass [3]; 500 g ai/ha): 40
Plant response rating, Barnyardgrass (barnyardgrass [3]; [5]): 50
Blackgrass plant response rating (blackgrass; 125 g ai/ha): 0
Blackgrass plant response rating (blackgrass; 500 g ai/ha): 20
Rice plant response rating (rice): 60
Plant response rating, Lambsquarters (lambsquarters; [4]): 100
Lambsquarters plant response rating (lambsquarters; 125 g ai/ha): 80
Lambsquarters plant response rating (lambsquarters; 500 g ai/ha): 90
Plant response rating, Lambsquarters (lambsquarters; [5]): 100

CCn1nc(C(C)(C)C)cc1C(=O)Nc1cccc(C#N)c1 [Compound 139]
Plant response rating, Surinam Grass (Surinam grass; [4]): 90
Surinam Grass plant response rating (Surinam grass; 125 g ai/ha): 10
Surinam Grass plant response rating (Surinam grass; 500 g ai/ha): 20
Plant response rating, Surinam Grass (Surinam grass; [5]): 30
Sedge, Umbrella plant response rating [1]: 80
Wheat plant response rating (wheat; 500 g ai/ha): 10
Plant response rating, Morningglory (morningglory; [4]): 30
Morningglory plant response rating (morningglory; 125 g ai/ha): 10
Morningglory plant response rating (morningglory; 500 g ai/ha): 100
Plant response rating, Morningglory (morningglory; [5]): 10
Plant response rating, Pigweed (pigweed; [4]): 100
Pigweed plant response rating (pigweed; 125 g ai/ha): 60
Pigweed plant response rating (pigweed; 500 g ai/ha): 90
Plant response rating, Pigweed (pigweed; [5]): 90
Barnyardgrass plant response rating (barnyardgrass [2]): 70
Ducksalad plant response rating (ducksalad): 80
Plant response rating, Foxtail, Giant (giant foxtail; [4]): 100
Foxtail, Giant plant response rating (giant foxtail; 125 g ai/ha): 10
Foxtail, Giant plant response rating (giant foxtail; 500 g ai/ha): 20
Plant response rating, Foxtail, Giant (giant foxtail; [5]): 70
Plant response rating, Crabgrass, Large (large crabgrass; [4]): 100
Crabgrass, Large plant response rating (large crabgrass; 125 g ai/ha): 10
Crabgrass, Large plant response rating (large crabgrass; 500 g ai/ha): 20
Plant response rating, Crabgrass, Large (large crabgrass; [5]): 60
Plant response rating, Cocklebur (cocklebur; [4]): 10
Cocklebur plant response rating (cocklebur; 125 g ai/ha): 20
Cocklebur plant response rating (cocklebur; 500 g ai/ha): 100
Plant response rating, Cocklebur (cocklebur; [5]): 0
Plant response rating, Velvetleaf (velvetleaf; [4]): 80
Velvetleaf plant response rating (velvetleaf; 125 g ai/ha): 20
Velvetleaf plant response rating (velvetleaf; 500 g ai/ha): 60
Plant response rating, Velvetleaf (velvetleaf; [5]): 50
Plant response rating, Barnyardgrass (barnyardgrass [3]; [4]): 90
Barnyardgrass plant response rating (barnyardgrass [3]; 125 g ai/ha): 10
Barnyardgrass plant response rating (barnyardgrass [3]; 500 g ai/ha): 10
Plant response rating, Barnyardgrass (barnyardgrass [3]; [5]): 80
Blackgrass plant response rating (blackgrass; 125 g ai/ha): 0
Blackgrass plant response rating (blackgrass; 500 g ai/ha): 10
Rice plant response rating (rice): 50
Plant response rating, Lambsquarters (lambsquarters; [4]): 100
Lambsquarters plant response rating (lambsquarters; 125 g ai/ha): 80
Lambsquarters plant response rating (lambsquarters; 500 g ai/ha): 90
Plant response rating, Lambsquarters (lambsquarters; [5]): 100
